Assay results from patent US20250073249A1, “STEROID COMPOUND, AND PREPARATION METHOD THEREFOR AND USE THEREOF” (SHANGHAI INSTITUTE OF MATERIA MEDICA, CHINESE ACADEMY OF …, priority 2022, published 2025).
Numbering of substitutions follows the chain as printed.

How the values were obtained:
[1] = test system: androgen-dependent organs; experiment: Hershberger assay, in vivo anti-androgenic activity; set-up: species or system Sprague-Dawley rats; conditions: castrated male rats, 0.4 mg/kg testosterone propionate, 20 mg/kg QD oral, 10 days
Description: The Hershberger assay was used to detect the in vivo anti-androgenic signal transduction activity of the compounds of the present invention. In this assay, compounds of the present invention (14, 33 and 37) were administered to prepubertal castrated male Sprague-Dawley rats in the presence of 0.4 mg/kg testosterone propionate (TP), and the weights of androgen-dependent organs were measured. Dosing continued for 10 days, and measurements were made 24 hours after the last dose. The degree of AR antagonism and subsequent organ growth inhibition was evaluated by comparison with castrated controls. The test compounds were orally administered at 20 mg/kg QD and the endpoint evaluation was performed by measuring the weight changes of 2 androgen-sensitive organs (ASO): seminal vesicles with coagulating glands (SVCG) and ventral prostate (VP). Enzalutamide (ENZ) was used as a positive control.

AR(T877A) = molecular target: T1, AR(T877A) (Homo sapiens, UniProt P10275, T878A); experiment: Mutant AR antagonistic activity test, T877A (reporter gene in HEK293 cells); assay type: cell-based; conditions: for IC50: HEK293 cells, DHT 10 nM, 24 hours, read-out: T877A IC50(nM) 1st gen AR antagonist resistant mutation
T1 construct: expressed in transfected cells; host or cells: HEK293
T1 sequence (P10275 1-920 T878A): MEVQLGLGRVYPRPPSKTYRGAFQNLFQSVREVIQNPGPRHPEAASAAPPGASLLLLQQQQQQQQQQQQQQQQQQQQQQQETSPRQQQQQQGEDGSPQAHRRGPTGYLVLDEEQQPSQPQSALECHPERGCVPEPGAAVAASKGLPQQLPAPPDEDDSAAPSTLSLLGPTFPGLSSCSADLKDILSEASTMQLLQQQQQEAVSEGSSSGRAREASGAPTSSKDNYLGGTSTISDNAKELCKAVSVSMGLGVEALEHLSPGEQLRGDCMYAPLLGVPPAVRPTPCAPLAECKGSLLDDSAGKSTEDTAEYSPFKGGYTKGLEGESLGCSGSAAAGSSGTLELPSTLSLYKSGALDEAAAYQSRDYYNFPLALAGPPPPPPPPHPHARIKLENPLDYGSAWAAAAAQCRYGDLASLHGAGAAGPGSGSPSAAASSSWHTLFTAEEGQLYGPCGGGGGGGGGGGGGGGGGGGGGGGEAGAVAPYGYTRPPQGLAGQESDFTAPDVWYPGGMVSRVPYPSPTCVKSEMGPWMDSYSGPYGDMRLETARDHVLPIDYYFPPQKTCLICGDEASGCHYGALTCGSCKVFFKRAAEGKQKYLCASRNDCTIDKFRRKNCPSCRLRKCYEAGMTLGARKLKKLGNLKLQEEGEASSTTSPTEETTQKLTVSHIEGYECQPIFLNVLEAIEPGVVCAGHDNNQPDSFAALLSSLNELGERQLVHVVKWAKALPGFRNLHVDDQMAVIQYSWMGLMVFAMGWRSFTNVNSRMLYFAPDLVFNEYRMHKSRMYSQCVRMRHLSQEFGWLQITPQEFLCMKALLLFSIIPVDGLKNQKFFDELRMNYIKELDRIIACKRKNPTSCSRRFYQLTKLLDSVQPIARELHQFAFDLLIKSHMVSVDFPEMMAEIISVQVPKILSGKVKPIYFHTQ
Description: (§1) HEK293 cells were cultured in DMEM supplemented with 10% FBS and 1% GlutaMax at 37° C. with 5% CO2. The day before transfection, the medium was changed to DMEM containing 10% charcoal-stripped FBS and 1% GlutaMax. […] The cell suspension was diluted with cell seeding solution, and the transfection reagent was added to achieve 500,000 cells/mL. Subsequently, 90 μL of cell suspension was seeded into each well of the assay plate. The next day, compounds were prepared: starting from 8 mM, 3-fold serial dilutions were performed in DMSO for a total of 8 points, then 500 nL was transferred to the compound plate using Echo. The compounds were then diluted with 40 μL of medium to 10× final concentration, and 10 μL was transferred to the cell plate and incubated at 37° C. for 30 minutes. Subsequently, 10 nL of DHT at a final concentration of 10 nM was transferred to each well of the assay plate using TECAN. After 24 hours of incubation, 100 μL of Steady-Glo was added to the assay plate and read on an Envision reader. Data were determined and analyzed using GraphPad Prism.

AR(W741L) = molecular target: T2, AR(W741L) (Homo sapiens, UniProt P10275, W742L); experiment: Mutant AR antagonistic activity test, W741L (reporter gene in HEK293 cells); assay type: cell-based; conditions: for IC50: HEK293 cells, DHT 10 nM, 24 hours, read-out: W741L IC50(nM) 1st gen AR antagonist resistant mutation
T2 construct: expressed in transfected cells; host or cells: HEK293
T2 sequence (P10275 1-920 W742L): T1 sequence (P10275 1-920 T878A) with W742L, A878T
Description: as §1

For `Cc1cn(C2=CCC3C4CC=C5C[C@@H](NC(=O)c6ccncc6)CC[C@]5(C)C4CC[C@]23C)cn1` (stereo partly drawn) [Compound 14, N-((3S,10R,13S)-10,13-dimethyl-17-(4-methyl-1H-imidazol-1-yl)-2,3,4,7,8,9,10,11,12,13,14,15-dodecahydro-1H-cyclopenta[a]phenanthren-3-yl)isonicotinamide], the “Growth of androgen-dependent organs (SVCG and VP weight) compared to the castration group” value (“Growth … compared to the castration group” for short) [1] was “significantly inhibited the growth of androgen-dependent organs”, the “In vivo anti-androgenic activity compared with enzalutamide” value [1] was “activity comparable to enzalutamide” and the IC50 (AR(T877A)) was 209 nM. For the same compound, the IC50 (AR(W741L)) was 490 nM.
For `Cc1cn(C2=CCC3C4CC=C5C[C@@H](NC(=O)c6ccc(F)cc6)CC[C@]5(C)C4CC[C@]23C)cn1` (stereo partly drawn) [Compound 33, N-((3S,10R,13S)-17-(4-methyl-1H-imidazol-1-yl)-10,13-dimethyl-2,3,4,7,8,9,10,11,12,13,14,15-dodecahydro-1H-cyclopenta[a]phenanthren-3-yl)-4-fluorobenzamide], the “Growth … compared to the castration group” value [1] was “significantly inhibited the growth of androgen-dependent organs”, the “In vivo anti-androgenic activity compared with enzalutamide” value [1] was “activity comparable to enzalutamide” and the IC50 (AR(T877A)) was 79.8 nM. For the same compound, the “T877A antagonistic activity, fold improvement compared to enzalutamide” value (AR(T877A); ratio to enzalutamide IC50) was 1.4 fold and the IC50 (AR(W741L)) was 371 nM.
With `Cc1cn(C2=CCC3C4CC=C5C[C@@H](NC(=O)c6ccc(S(C)(=O)=O)cc6)CC[C@]5(C)C4CC[C@]23C)cn1` (stereo partly drawn) [Compound 35, N-((3S,10R,13S)-17-(4-methyl-1H-imidazol-1-yl)-10,13-dimethyl-2,3,4,7,8,9,10,11,12,13,14,15-dodecahydro-1H-cyclopenta[a]phenanthren-3-yl)-4-(methylsulfonyl)benzamide] the IC50 (AR(T877A)) was 462 nM, the IC50 (AR(W741L)) was 259 nM and the “W741L antagonistic activity, fold improvement compared to enzalutamide” value (AR(W741L); ratio to enzalutamide IC50) was 4.0 fold.
In the case of `Cc1cn(C2=CCC3C4CC=C5C[C@@H](NC(=O)c6ccc(F)cc6F)CC[C@]5(C)C4CC[C@]23C)cn1` (stereo partly drawn) [Compound 37, N-((3S,10R,13S)-17-(4-methyl-1H-imidazol-1-yl)-10,13-dimethyl-2,3,4,7,8,9,10,11,12,13,14,15-dodecahydro-1H-cyclopenta[a]phenanthren-3-yl)-2,4-difluorobenzamide], the “Growth … compared to the castration group” value [1] is reported as “significantly inhibited the growth of androgen-dependent organs”, the “In vivo anti-androgenic activity compared with enzalutamide” value [1] is reported as “activity comparable to enzalutamide” and the IC50 (AR(T877A)) is reported as 281 nM. It also gave an IC50 (AR(W741L)) of 413 nM.
